Data on 26 compounds can be found in US11780826B2 (Amgen Inc., priority 2017, dated 2023).

The test system of this assay is Bovine cardiac myofibrils. Kind of assay: In vitro model of dose-dependent myofibril ATPase modulation (AC1.4, pyruvate kinase/lactate dehydrogenase-coupled ATPase assay at pCa25). It is filed as biochemical. To be noted: concentration at which ATPase activity was 1.4-fold higher than the bottom of the dose curve, mean of a minimum of two independent tests. The method, boiled down:
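Bovine cardiac myofibrils, detergent-treated; 0.25-1.0 mg/ml. Buffer: K-PIPES 12 mM, MgCl2 2 mM, DTT 1 mM, BSA 0.1 mg/ml, pH 6.80, 22° C; Ca2+ set by EGTA/CaCl2. ATP 1 mM, NADH/PEP-coupled, A340. 4-parameter fit; n≥2.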
Compound `O=C(N[C@@H](c1ccc(C(F)(F)F)cc1F)C1CC1)[C@H]1CCCN1C(=O)c1cccc(S(=O)(=O)CC(F)(F)F)c1` [Example 281, N-((R)-cyclopropyl(2-fluoro-4-(trifluoromethyl)phenyl)methyl)-1-(3-((2,2,2-trifluoroethyl)sulfonyl)benzoyl)-D-prolinamide] had an AC1.4 of 0.7104 µM.

Take `C[C@H](NC(=O)[C@@H](C)N(C)C(=O)c1cccc(S(=O)(=O)N2CC(C#N)C2)c1)c1ccc(Cl)cc1` [Example 331, N-((1R)-2-(((1S)-1-(4-chlorophenyl)ethyl)amino)-1-methyl-2-oxoethyl)-3-((3-cyano-1-azetidinyl)sulfonyl)-N-methylbenzamide]: the AC1.4 is 0.8976 µM.

The compound `C[C@@H](NC(=O)[C@H]1CCCN1C(=O)[C@H]1CCCN(S(=O)(=O)N2CC(C#N)C2)C1)c1cc(F)cc(F)c1` [Example 391, 1-(((3S)-1-((3-cyano-1-azetidinyl)sulfonyl)-3-piperidinyl)carbonyl)-N-((1R)-1-(3,5-difluorophenyl)ethyl)-D-prolinamide] gave an AC1.4 of 1.3505 µM.

Compound `C[C@@H](NC(=O)[C@H]1CCCN1C(=O)c1cccc(S(=O)(=O)N2CC3(CC3)C2)c1)c1ccc(Cl)c(Cl)c1` [Example 635, 1-((3-(5-azaspiro[2.3]hex-5-ylsulfonyl)phenyl)carbonyl)-N-((1R)-1-(3,4-dichlorophenyl)ethyl)-D-prolinamide] came in with an AC1.4 of 4.1355 µM.

As for `N#CC1CN(S(=O)(=O)N2CCC[C@H](C(=O)N3CCC[C@@H]3C(=O)N[C@H](c3cc(F)c(Cl)cc3F)C3CNC3)C2)C1` [Example 47, N-((S)-3-azetidinyl(4-chloro-2,5-difluorophenyl)methyl)-1-(((3S)-1-((3-cyano-1-azetidinyl)sulfonyl)-3-piperidinyl)carbonyl)-D-prolinamide], the AC1.4 stood at 0.0527 µM.

For `N#CC1CN(S(=O)(=O)N2CCC[C@H](C(=O)N3C[C@@H](O)C[C@@H]3C(=O)NCc3ccc(C(F)(F)F)cc3)C2)C1` [Example 581, (4S)-1-(((3S)-1-((3-cyano-1-azetidinyl)sulfonyl)-3-piperidinyl)carbonyl)-4-hydroxy-N-(4-(trifluoromethyl)benzyl)-D-prolinamide], the AC1.4 amounted to 3.364 µM.

The compound `Cc1ccc(C)c(CNC(=O)[C@H]2CCCN2C(=O)[C@H]2CCCN(S(=O)(=O)N3CC(C#N)C3)C2)c1` [Example 765, 1-(((3S)-1-((3-cyano-1-azetidinyl)sulfonyl)-3-piperidinyl)carbonyl)-N-(2,5-dimethylbenzyl)-D-prolinamide] showed an AC1.4 of 7.9325 µM.

For the compound `Nc1ccccc1C(=O)N1[C@@H](C(=O)N[C@@H](c2ccc(C(F)(F)F)cc2F)C2CC2)C[C@H]2C[C@H]21` [Example 755, (1R,3R,5R)-2-(2-aminobenzoyl)-N-((R)-cyclopropyl(2-fluoro-4-(trifluoromethyl)phenyl)methyl)-2-azabicyclo[3.1.0]hexane-3-carboxamide], the AC1.4 came to 7.5435 µM.

Take `CC(C)(C)Nc1ccc(S(C)(=O)=O)cc1C(=O)N1[C@@H](C(=O)N[C@@H](c2ccc(C(F)(F)F)cc2F)C2CC2)C[C@H]2C[C@H]21` [Example 101, (1R,3R,5R)-N-((R)-cyclopropyl(2-fluoro-4-(trifluoromethyl)phenyl)methyl)-2-(2-((2-methyl-2-propanyl)amino)-5-(methylsulfonyl)benzoyl)-2-azabicyclo[3.1.0]hexane-3-carboxamide]: the AC1.4 turned out to be 0.1559 µM.

On to `Cc1ccc(CNC(=O)[C@H]2CCCN2C(=O)[C@H]2CCCN(S(=O)(=O)N3CC(C#N)C3)C2)cc1C` [Example 336, 1-(((3S)-1-((3-cyano-1-azetidinyl)sulfonyl)-3-piperidinyl)carbonyl)-N-(3,4-dimethylbenzyl)-D-prolinamide], for which the AC1.4 was 0.9372 µM.

For `CCS(=O)(=O)c1cc(C(=O)N2[C@@H](C(=O)N[C@@H](c3cc(F)c(Cl)cc3F)C3CC3)C[C@H]3C[C@H]32)ccn1` [Example 389, (1R,3R,5R)-N-((R)-(4-chloro-2,5-difluorophenyl)(cyclopropyl)methyl)-2-((2-(ethylsulfonyl)-4-pyridinyl)carbonyl)-2-azabicyclo[3.1.0]hexane-3-carboxamide], the AC1.4 turned out to be 1.2325 µM.

Regarding `CS(=O)(=O)c1cncc(C(=O)N2CC[C@H](C(F)(F)F)[C@H]2C(=O)N[C@@H](c2cc(F)c(C(F)(F)F)cc2F)C2CC2)c1` [Example 236, (3S)-N-((R)-cyclopropyl(2,5-difluoro-4-(trifluoromethyl)phenyl)methyl)-1-((5-(methylsulfonyl)-3-pyridinyl)carbonyl)-3-(trifluoromethyl)-L-prolinamide], the AC1.4 stood at 0.5579 µM.

The compound `O=C(NCc1ccc(C(F)(F)F)cc1)[C@H]1CCCN1C(=O)[C@H]1CCCN(S(=O)(=O)N2CC(n3ccnn3)C2)C1` [Example 203, 1-(((3S)-1-((3-(1H-l,2,3-triazol-1-yl)-1-azetidinyl)sulfonyl)-3-piperidinyl)carbonyl)-N-(4-(trifluoromethyl)benzyl)-D-prolinamide] registered an AC1.4 of 0.4299 µM.

In turn, `CC(C)(C)c1cccc(C(=O)N2[C@@H](C(=O)N[C@@H](c3ccc(C(F)(F)F)cc3F)C3COC3)C[C@H]3C[C@H]32)c1` [Example 213, (1R,3R,5R)-N-((R)-(2-fluoro-4-(trifluoromethyl)phenyl)(3-oxetanyl)methyl)-2-(3-(2-methyl-2-propanyl)benzoyl)-2-azabicyclo[3.1.0]hexane-3-carboxamide] gave an AC1.4 of 0.4603 µM.

The compound `N#CC1CN(S(=O)(=O)N2CCC[C@H](C(=O)N3[C@@H](C(=O)NCc4ccc(C(F)(F)F)cn4)C[C@H]4C[C@H]43)C2)C1` [Example 348, (1R,3R,5R)-2-(((3S)-1-((3-cyano-1-azetidinyl)sulfonyl)-3-piperidinyl)carbonyl)-N-((5-(trifluoromethyl)-2-pyridinyl)methyl)-2-azabicyclo[3.1.0]hexane-3-carboxamide] showed an AC1.4 of 1.0273 µM.

`Cc1cc(C(=O)N2[C@@H](C(=O)N[C@@H](c3ccc(C(F)(F)F)cc3F)C3CC3)C[C@H]3C[C@H]32)c(NC2CC2)cn1` [Example 458, (1R,3R,5R)-2-((5-(cyclopropylamino)-2-methyl-4-pyridinyl)carbonyl)-N-((R)-cyclopropyl(2-fluoro-4-(trifluoromethyl)phenyl)methyl)-2-azabicyclo[3.1.0]hexane-3-carboxamide] registered an AC1.4 of 1.5845 µM.

For the compound `N#CC1CN(S(=O)(=O)N2CCC[C@H](C(=O)N3CCC[C@@H]3C(=O)NCc3cc(Cl)cc(Cl)c3)C2)C1` [Example 390, 1-(((3S)-1-((3-cyano-1-azetidinyl)sulfonyl)-3-piperidinyl)carbonyl)-N-(3,5-dichlorobenzyl)-D-prolinamide], the AC1.4 was found to be 1.3495 µM.

In turn, `CS(=O)(=O)c1cccc(C(=O)N2C[C@H](C(F)F)C[C@@H]2C(=O)N[C@@H](c2ccc(C(F)(F)F)cc2F)C2CC2)c1` [Example 354, (4R)-N-((R)-cyclopropyl(2-fluoro-4-(trifluoromethyl)phenyl)methyl)-4-(difluoromethyl)-1-(3-(methylsulfonyl)benzoyl)-D-prolinamide] registered an AC1.4 of 1.0425 µM.

For `CS(=O)(=O)C1CN(S(=O)(=O)N2CCC[C@H](C(=O)N3CCC[C@@H]3C(=O)NCc3ccc(C(F)(F)F)cn3)C2)C1` [Example 499, 1-(((3S)-1-((3-(methylsulfonyl)-1-azetidinyl)sulfonyl)-3-piperidinyl)carbonyl)-N-((5-(trifluoromethyl)-2-pyridinyl)methyl)-D-prolinamide], the AC1.4 came to 2.344 µM.

`N#CC1CN(S(=O)(=O)N2CCC[C@H](C(=O)N3CCC[C@@H]3C(=O)NCc3cccc(C(F)(F)F)c3)C2)C1` [Example 353, 1-(((3S)-1-((3-cyano-1-azetidinyl)sulfonyl)-3-piperidinyl)carbonyl)-N-(3-(trifluoromethyl)benzyl)-D-prolinamide] had an AC1.4 of 1.0398 µM.

In the case of `CS(=O)(=O)c1cccc(C(=O)N2C[C@@H](F)C[C@@H]2C(=O)N[C@@H](c2ccc(Cl)cc2F)C2COC2)c1` [Example 352, (4S)-N-((R)-(4-chloro-2-fluorophenyl)(3-oxetanyl)methyl)-4-fluoro-1-(3-(methylsulfonyl)benzoyl)-D-prolinamide], the AC1.4 was 0.9758 µM.

Take `NS(=O)(=O)c1ccc(Cl)c(C(=O)N2CCC[C@@H]2C(=O)N[C@@H](c2ccc(C(F)(F)F)cc2F)C2CC2)c1` [Example 687, 1-(2-chloro-5-sulfamoylbenzoyl)-N-((R)-cyclopropyl(2-fluoro-4-(trifluoromethyl)phenyl)methyl)-D-prolinamide]: the AC1.4 amounted to 5.299 µM.

In the case of `CC[C@@H](NC(=O)[C@H]1CCCN1C(=O)[C@H]1CCCN(S(=O)(=O)N2CC(C#N)C2)C1)c1cc(F)cc(F)c1` [Example 245, 1-(((3S)-1-((3-cyano-1-azetidinyl)sulfonyl)-3-piperidinyl)carbonyl)-N-((1R)-1-(3,5-difluorophenyl)propyl)-D-prolinamide], the AC1.4 turned out to be 0.582 µM.

`O=C(N[C@@H](c1cc(F)c(Cl)cc1F)C1COC1)[C@H]1C[C@H](O)CN1C(=O)c1ccnc(C(F)(F)F)c1` [Example 723, (4S)-N-((R)-(4-chloro-2,5-difluorophenyl)(3-oxetanyl)methyl)-4-hydroxy-1-((2-(trifluoromethyl)-4-pyridinyl)carbonyl)-D-prolinamide]: the AC1.4 worked out at 6.4425 µM.

`CS(=O)(=O)c1cccc(C(=O)N2CCC[C@@H]2C(=O)N[C@@H](c2ccc(C(F)(F)F)c(F)c2)C2COC2)c1` [Example 179, N-((R)-(3-fluoro-4-(trifluoromethyl)phenyl)(3-oxetanyl)methyl)-1-(3-(methylsulfonyl)benzoyl)-D-prolinamide] yielded an AC1.4 of 0.3231 µM.

Compound `Cc1ccc(CNC(=O)[C@H]2CCCN2C(=O)[C@H]2CCCN(S(=O)(=O)N3CC(C#N)C3)C2)c(C)c1` [Example 256, 1-(((3S)-1-((3-cyano-1-azetidinyl)sulfonyl)-3-piperidinyl)carbonyl)-N-(2,4-dimethylbenzyl)-D-prolinamide] yielded an AC1.4 of 0.632 µM.
